Measurements as given in publication PMC10258794, “To Fold or Not to Fold: Diastereomeric Optimization of an α-Helical Antimicrobial Peptide” (Journal of Medicinal Chemistry, 2023).
≈ marks a conversion by molar mass, not a printed value. Where two headings read alike, the source gives them in different places. Positions of bridges follow the written chain, without caps; N, C: chain ends. Non-standard residues stand in square brackets, D forms with d. Residues, ends and D or L forms follow the SMILES beside them. *: point of attachment. Heptanoyl(6-Me) = CC(C)CCCCC(=O)*; dDab = NCC[C@@H](N)C(=O)O; Dab = NCC[C@H](N)C(=O)O

Tests used:
PA14 4.18 (pmrB) = assay: microbe, parasite or virus in culture; conditions: for MIC P. aeruginosa PA14 4.18: supplementary CSV
Procedure: (§1) Antimicrobial activity was determined for all peptides on E. coli W3110, P. aeruginosa PAO1, A. baumannii ATCC19606, K. pneumoniae NCTC418, and methicillin-resistant S. aureus COL and for selected peptides on P. aeruginosa PA14 and the polymyxin B-resistant derivatives PA14 4.13, PA14 4.18, and PA14 2P4 as well as the clinical isolates ZEM-1A and ZEM9A, K. pneumoniae OXA-48, Enterobacter cloacae, Stenotrophomonas maltophilia, B. cenocepacia, and Staphylococus epidermis. To determine the MIC, the broth microdilution method was used.[75] A single bacterial colony was grown in LB medium overnight at 37 °C and 180 rpm shaking. The compounds were prepared as stock solutions of 2 mg/mL in sterilized milliQ deionized water, added to the first well of 96-well sterile, polypropylene round-bottom microtiter plates (TPP, untreated, Corning Incorporated, Kennebunk, USA), and diluted serially by 1/2. […] The bacterial inoculum was prepared by measuring the absorbance of the overnight culture, which was diluted to concentration of the bacteria was quantified by measuring absorbance at 600 nm and diluted to an OD600 of 0.022 in MH medium pH 7.4 (Sigma-Aldrich, Buchs, Switzerland). The sample solutions (150 μL) were mixed with 4 μL of diluted bacterial suspension with a final inoculation of about 5 × 10^5 CFU. For each test, two columns of the plate were kept for sterility control (MH medium only) and growth control (MH medium with bacterial inoculum, no compound). […] The plates were incubated at 37 °C for 16–20 h under static conditions. 15 μL of 3-(4,5-dimethylthiazol-2-yl)-2,5-diphenyltetrazolium bromide (MTT)[76] (1 mg/mL in sterilized milliQ deionized water) was added to each well, and the plates were incubated at room temperature until MTT staining was completed. The MIC was defined as the lowest concentration of the dendrimer that inhibits the visible growth of the tested bacteria (yellow) with the unaided eye.

P. aeruginosa ZEM-1A = assay: microbe, parasite or virus in culture; conditions: for MIC ZEM-1A: pH 7.4
Procedure: as §1

Burkolderia cenocepacia = assay: microbe, parasite or virus in culture; conditions: for MIC Burkolderia cenocepacia: MDR strain, MH broth pH 7.4, 16–20 h, 37 °C
Procedure: as §1

Enterobacter cloacae = assay: microbe, parasite or virus in culture; conditions: for MIC Enterobacter cloacae: pH 7.4
Procedure: as §1

PA14 4.13 (phoQ) = assay: microbe, parasite or virus in culture; conditions: for MIC P. aeruginosa PA14 4.13: supplementary CSV
Procedure: as §1

PA14 2P4 (pmrB) = assay: microbe, parasite or virus in culture; conditions: for MIC P. aeruginosaPA14 2P4: supplementary CSV
Procedure: as §1

P. aeruginosa PA14 = assay: microbe, parasite or virus in culture; conditions: for MIC PA14: MH broth pH 7.4, 16–20 h, 37 °C; for MIC P. aeruginosa PA14: supplementary CSV
Procedure: as §1

P. aeruginosa ZEM9A = assay: microbe, parasite or virus in culture; format: cell-based, Pseudomonas aeruginosa; conditions: for MIC ZEM9A: pH 7.4
Procedure: as §1

K. pneumoniae Oxa-48 = assay: MIC broth microdilution, K. pneumoniae Oxa-48; format: cell-based, Klebsiella pneumoniae; conditions: for MIC K. pneumoniae Oxa-48: MDR strain, MH broth pH 7.4, 16–20 h, 37 °C
Procedure: as §1

[1] = system: Stenotrophomonas maltophilia; assay: microbe, parasite or virus in culture; format: cell-based; conditions: for MIC Stenotrophomonas maltophilia: pH 7.4
Procedure: as §1

Staphylococcus epidermis = assay: MIC broth microdilution, Staphylococcus epidermis; format: cell-based; conditions: pH 7.4
Procedure: as §1

S. aureus Newman = conditions: for MIC S. aureus Newman: MH broth pH 7.4, 16–20 h, 37 °C; for MIC S. aureus Newmann: supplementary CSV
E. coli W3110 = conditions: MH broth pH 7.4, 16–20 h, 37 °C
Procedure: as §1

K. pneumoniae NCTC418 = system: K. pneumoniae NCTC418
Procedure: as §1

A. baumannii ATCC19606 = system: A. baumannii ATCC19606
Procedure: as §1

S. aureus COL MRSA = conditions: for MIC S. aureus COL MRSA: MH broth pH 7.4, 16–20 h, 37 °C; for MIC S. aureus COL: supplementary CSV, ranges of Table 1 given as one number
Procedure: as §1

P. aeruginosa PAO1 = system: P. aeruginosa PAO1
Procedure: as §1

A549 cells = assay: Alamar blue cytotoxicity, A549; format: cell-based, human; conditions: 24 h, mean ± SD, n = 3, read-out: Toxicity on A549 lung cancern cells
Procedure: (§2) The A549 human lung adenocarcinoma cells are derived from a patient and were kindly given to us by Dr. Georgia Konstatinidou (Pharmacology Institute, Bern University). HEK293T cells were obtained from ATCC (CRL-11268). A549 and HEK293 were cultured in an incubator at 37 °C with 5% CO2 in RPMI-1640 (Gibco) and DMEM (Gibco) containing 10% fetal bovine serum (Thermo Fisher), 100 I.U./mL penicillin, and 100 μg/mL streptomycin (Gibco).
(§3) The viability of the cells was assessed with an AlamarBlue assay (ThermoFisher). Cells were seeded into 96-well plates, 4000 cells/well (HEK293) and 8000 cells/well (A549), the day before the experiment. Cells were then treated with the increasing concentration of the compound and incubated for 24 h at 37 °C in the presence of 5% CO2. The next day, the medium was removed and replaced by a 10% AlamarBlue solution in full growth medium (DMEM or RPMI-1640). The cells were incubated for 3–5 h at 37 °C with 5% CO2 in a humidified atmosphere. The fluorescence was then measured on a Tecan Infinite M1000 Pro plate reader at λex 560 nm and λem 590 nm. The value was normalized according to the untreated cells.

HEK293 cells = assay: Alamar blue cytotoxicity, HEK293; format: cell-based, human; conditions: 24 h, mean ± SD, n = 3, read-out: Toxicity on HEK293 cells
Procedure: as §2, §3

[2] = MH broth pH 7.4, 16–20 h, 37 °C
[3] = supplementary CSV, ranges of Table 1 given as one number

CC(C)CCCCC(=O)N[C@@H](CCN)C(=O)N[C@H](C(=O)N[C@@H](CCN)C(=O)N[C@H]1CCNC(=O)[C@H]([C@@H](C)O)NC(=O)[C@H](CCN)NC(=O)[C@H](CCN)NC(=O)[C@H](CC(C)C)NC(=O)[C@@H](Cc2ccccc2)NC(=O)[C@@H](CCN)NC1=O)[C@@H](C)O [Pol B, polymyxin B, reference compound] ({Heptanoyl(6-Me)}-[Dab]T[Dab][Dab][dDab][dF]L[Dab][Dab]T; lactam 4-C)
MIC (PA14 4.18 (pmrB); Pseudomonas aeruginosa, PA14, pH 7.4, read-out: MIC PA14 4.18 (pmrB)): 1 µg/mL (≈ 0.841 µM) | MIC (P. aeruginosa ZEM-1A; Pseudomonas aeruginosa, ZEM1A, pH 7.4, read-out: MIC ZEM-1A): < 0.125 µg/mL | MIC (Burkolderia cenocepacia; Burkholderia cenocepacia, pH 7.4, read-out: MIC Burkolderia cenocepacia): > 16 µg/mL | MIC (Enterobacter cloacae; Enterobacter cloacae, pH 7.4, read-out: MIC Enterobacter cloacae): 1 µg/mL (≈ 0.841 µM) | MIC (PA14 4.13 (phoQ); Pseudomonas aeruginosa, PA14, pH 7.4, read-out: MIC PA14 4.13 (phoQ)): 0.25 µg/mL (≈ 0.21 µM) | MIC (PA14 2P4 (pmrB); Pseudomonas aeruginosa, PA14, pH 7.4, read-out: MIC PA14 2P4 (pmrB)): 1 µg/mL (≈ 0.841 µM) | MIC (P. aeruginosa PA14; Pseudomonas aeruginosa, PA14, pH 7.4, read-out: MIC PA14): < 0.125 µg/mL | MIC (P. aeruginosa ZEM9A; Pseudomonas aeruginosa, ZEM9A, MDR strain, MH broth pH 7.4, 16–20 h, 37 °C): 2 µg/mL (≈ 1.68 µM) | MIC (K. pneumoniae Oxa-48; Klebsiella pneumoniae, OXA48, pH 7.4, read-out: MIC K. pneumoniae Oxa-48): 2 µg/mL (≈ 1.68 µM) | MIC ([1]; Stenotrophomonas maltophilia, MDR strain, MH broth pH 7.4, 16–20 h, 37 °C): 0.5 µg/mL (≈ 0.42 µM)

CC(C)C[C@H](NC(=O)[C@H](CC(C)C)NC(=O)[C@H](CC(C)C)NC(=O)[C@H](CCCCN)NC(=O)[C@H](CC(C)C)NC(=O)[C@H](CC(C)C)NC(=O)[C@H](CCCCN)NC(=O)[C@H](CC(C)C)NC(=O)[C@H](CC(C)C)NC(=O)[C@@H](CCCCN)NC(=O)[C@@H](N)CCCCN)C(N)=O [HP1]
MIC P. aeruginosa PA14 4.18 (PA14 4.18 (pmrB)): 32 µg/mL (≈ 24.2 µM) | MIC ZEM-1A (P. aeruginosa ZEM-1A): 2 µg/mL (≈ 1.51 µM) | MIC Burkolderia cenocepacia (Burkolderia cenocepacia): >64 µg/mL | MIC Enterobacter cloacae (Enterobacter cloacae): 2 µg/mL (≈ 1.51 µM) | MIC P. aeruginosa PA14 4.13 (PA14 4.13 (phoQ)): 4 µg/mL (≈ 3.03 µM) | MIC P. aeruginosaPA14 2P4 (PA14 2P4 (pmrB)): 64 µg/mL (≈ 48.4 µM) | MIC PA14 (P. aeruginosa PA14): 2 µg/mL (≈ 1.51 µM) | MIC P. aeruginosa PA14 (P. aeruginosa PA14): 2 µg/mL (≈ 1.51 µM) | MIC Staphylococcus epidermis (Staphylococcus epidermis): 2 µg/mL (≈ 1.51 µM) | MIC S. aureus Newman (S. aureus Newman): 2 µg/mL (≈ 1.51 µM) | MIC S. aureus Newmann (S. aureus Newman): 2 µg/mL (≈ 1.51 µM) | MIC E. coli W3110 (E. coli W3110): 2 µg/mL (≈ 1.51 µM) | MIC K. pneumoniae NCTC418 (K. pneumoniae NCTC418; [2]): 4 to 8 µg/mL | MIC K. pneumoniae NCTC418 (K. pneumoniae NCTC418; [3]): 6 µg/mL (≈ 4.54 µM) | MIC A. baumannii ATCC19606 (A. baumannii ATCC19606; [2]): 4 µg/mL (≈ 3.03 µM) | MIC A. baumannii ATCC19606 (A. baumannii ATCC19606; [3]): 4 µg/mL (≈ 3.03 µM) | MIC S. aureus COL MRSA (S. aureus COL MRSA): 2 µg/mL (≈ 1.51 µM) | MIC S. aureus COL (S. aureus COL MRSA): 2 µg/mL (≈ 1.51 µM) | MIC P. aeruginosa PAO1 (P. aeruginosa PAO1; [2]): 4 µg/mL (≈ 3.03 µM) | MIC P. aeruginosa PAO1 (P. aeruginosa PAO1; [3]): 4 µg/mL (≈ 3.03 µM) | IC50 (A549 cells): 2.7 ± 2.4 µM | MIC ZEM9A (P. aeruginosa ZEM9A): 4 µg/mL (≈ 3.03 µM) | MIC K. pneumoniae Oxa-48 (K. pneumoniae Oxa-48): 8 µg/mL (≈ 6.05 µM) | IC50 (HEK293 cells): 42.9 ± 2.6 µM | MIC Stenotrophomonas maltophilia [1]: 4 µg/mL (≈ 3.03 µM)

CC(C)C[C@H](NC(=O)[C@H](CC(C)C)NC(=O)[C@H](CC(C)C)NC(=O)[C@H](CCCCN)NC(=O)[C@H](CC(C)C)NC(=O)[C@H](CC(C)C)NC(=O)[C@H](CCCCN)NC(=O)[C@H](CC(C)C)NC(=O)[C@H](CC(C)C)NC(=O)[C@@H](CCCCN)NC(=O)[C@H](N)CCCCN)C(N)=O [HP2]
MIC P. aeruginosa PA14 4.18 (PA14 4.18 (pmrB)): 32 µg/mL (≈ 24.2 µM) | MIC ZEM-1A (P. aeruginosa ZEM-1A): 2 µg/mL (≈ 1.51 µM) | MIC Burkolderia cenocepacia (Burkolderia cenocepacia): >64 µg/mL | MIC Enterobacter cloacae (Enterobacter cloacae): 2 µg/mL (≈ 1.51 µM) | MIC P. aeruginosa PA14 4.13 (PA14 4.13 (phoQ)): 4 µg/mL (≈ 3.03 µM) | MIC P. aeruginosaPA14 2P4 (PA14 2P4 (pmrB)): 64 µg/mL (≈ 48.4 µM) | MIC PA14 (P. aeruginosa PA14): 2 µg/mL (≈ 1.51 µM) | MIC P. aeruginosa PA14 (P. aeruginosa PA14): 2 µg/mL (≈ 1.51 µM) | MIC Staphylococcus epidermis (Staphylococcus epidermis): 2 µg/mL (≈ 1.51 µM) | MIC S. aureus Newman (S. aureus Newman): 2 µg/mL (≈ 1.51 µM) | MIC S. aureus Newmann (S. aureus Newman): 2 µg/mL (≈ 1.51 µM) | MIC E. coli W3110 (E. coli W3110): 4 µg/mL (≈ 3.03 µM) | MIC K. pneumoniae NCTC418 (K. pneumoniae NCTC418; [2]): 2 to 4 µg/mL | MIC K. pneumoniae NCTC418 (K. pneumoniae NCTC418; [3]): 3 µg/mL (≈ 2.27 µM) | MIC A. baumannii ATCC19606 (A. baumannii ATCC19606; [2]): 4 µg/mL (≈ 3.03 µM) | MIC A. baumannii ATCC19606 (A. baumannii ATCC19606; [3]): 4 µg/mL (≈ 3.03 µM) | MIC S. aureus COL MRSA (S. aureus COL MRSA): 4 µg/mL (≈ 3.03 µM) | MIC S. aureus COL (S. aureus COL MRSA): 4 µg/mL (≈ 3.03 µM) | MIC P. aeruginosa PAO1 (P. aeruginosa PAO1; [2]): 4 µg/mL (≈ 3.03 µM) | MIC P. aeruginosa PAO1 (P. aeruginosa PAO1; [3]): 4 µg/mL (≈ 3.03 µM) | MIC ZEM9A (P. aeruginosa ZEM9A): 4 µg/mL (≈ 3.03 µM) | MIC K. pneumoniae Oxa-48 (K. pneumoniae Oxa-48): 2 µg/mL (≈ 1.51 µM) | MIC Stenotrophomonas maltophilia [1]: 2 µg/mL (≈ 1.51 µM)
